Data as given in patent publication US10780090B2, “Heteroaryl compounds useful as inhibitors of SUMO activating enzyme” (Millennium Pharmaceuticals, Inc., priority 2014, dated 2020).

Molecular target: recombinant human SAE enzyme (Homo sapiens (Human), UniProt Q9UBT2)
Assay: SAE HTRF enzyme assay
Format: biochemical
Details: for inhibition at 0.111 µM / Percent Inhibition: Concentration 0.111 μM; for inhibition at 0.111 µM: read-out: Percent Inhibition; for IC50: class symbols A/B/C
Summary of the method: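 Human SAE (0.11 nM) with 0.5 μM ATP, 0.125 μM Sumo-Flag and 0.01 μM Ubc9-GST in HEPES pH 7.5, 5 mM MgCl2, 250 μM GSH; 105 min at 24 °C. Stopped with EDTA; HTRF read after 2 h with Eu-anti-Flag and APC-anti-GST. Percent inhibition or IC50 reported.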

Chain of recombinant human SAE enzyme (Q9UBT2 whole entry): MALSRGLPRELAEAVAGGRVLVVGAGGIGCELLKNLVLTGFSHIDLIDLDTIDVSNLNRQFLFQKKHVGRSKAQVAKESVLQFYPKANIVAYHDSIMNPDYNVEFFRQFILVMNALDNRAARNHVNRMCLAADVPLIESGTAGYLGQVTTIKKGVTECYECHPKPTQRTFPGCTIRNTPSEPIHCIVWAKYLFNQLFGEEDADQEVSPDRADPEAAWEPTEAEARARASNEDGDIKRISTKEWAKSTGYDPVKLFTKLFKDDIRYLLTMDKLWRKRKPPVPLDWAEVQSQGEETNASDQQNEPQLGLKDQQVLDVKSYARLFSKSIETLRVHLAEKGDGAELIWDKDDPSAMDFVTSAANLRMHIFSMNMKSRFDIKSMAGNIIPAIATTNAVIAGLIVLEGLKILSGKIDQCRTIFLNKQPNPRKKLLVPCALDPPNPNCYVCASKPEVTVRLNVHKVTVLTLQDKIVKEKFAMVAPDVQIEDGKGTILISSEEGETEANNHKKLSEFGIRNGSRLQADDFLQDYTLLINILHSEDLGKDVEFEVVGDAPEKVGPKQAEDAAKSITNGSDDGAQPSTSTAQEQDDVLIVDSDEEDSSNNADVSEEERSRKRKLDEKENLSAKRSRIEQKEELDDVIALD
Chain of recombinant human SAE enzyme (Q9UBE0 whole entry partner): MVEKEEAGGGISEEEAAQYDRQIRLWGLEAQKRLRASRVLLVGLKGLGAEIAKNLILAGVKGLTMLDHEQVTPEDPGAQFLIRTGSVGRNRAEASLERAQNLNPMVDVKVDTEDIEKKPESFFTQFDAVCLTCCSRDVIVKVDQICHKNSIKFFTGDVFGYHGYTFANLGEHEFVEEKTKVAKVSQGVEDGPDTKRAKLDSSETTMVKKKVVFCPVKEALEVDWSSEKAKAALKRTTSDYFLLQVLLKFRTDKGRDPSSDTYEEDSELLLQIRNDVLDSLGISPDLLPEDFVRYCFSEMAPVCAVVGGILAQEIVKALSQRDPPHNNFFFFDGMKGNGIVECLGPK

| Structure (SMILES) | inhibition at 0.111 µM [%] | IC50 [nM] | Percent Inhibition |
| --- | --- | --- | --- |
| NS(=O)(=O)OC[C@H]1C[C@@H](Nc2ncncc2C(=O)c2cc(CC3CCCCC3)cs2)C[C@@H]1O [I-199, {(1R,2S,4R)-4-[(5-{[4-(Cyclohexylmethyl)-2-thienyl]carbonyl}pyrimidin-4-yl)amino]-2-hydroxycyclopentyl}methyl sulfamate] | 63 | 10 to 100 | – |
| NS(=O)(=O)OC[C@H]1C[C@@H](Nc2ncncc2C(=O)c2cc(S(=O)(=O)c3ccccc3)cs2)C[C@@H]1O [I-200, {(1R,2S,4R)-2-Hydroxy-4-[(5-[4-(phenylsulfonyl)-2-thienyl]carbonyl}pyrimidin-4-yl)amino]cyclopentyl}methyl sulfamate] | – | 10 to 100 | 62 |
| CC(C)Oc1ccccc1OCc1csc(C(=O)c2cncnc2N[C@@H]2C[C@H](COS(N)(=O)=O)[C@@H](O)C2)c1 [I-201, [(1R,2S,4R)-2-hydroxy-4-{[5-({4-[(2-isopropoxyphenoxy)methyl]-2-thienyl}carbonyl)pyrimidin-4-yl]amino}cyclopentyl]methyl sulfamate] | 60 | 10 to 100 | – |
| CC(C)(O)c1ccc(C(=O)c2cncnc2N[C@@H]2C[C@H](COS(N)(=O)=O)[C@@H](O)[C@H]2O)s1 [I-202, {(1R,2R,3S,4R)-2,3-dihydroxy-4-[(5-{[5-(2-hydroxypropan-2-yl)-2-thienyl]carbonyl}pyrimidin-4-yl)amino]cyclopentyl}methyl sulfamate] | 60 | 10 to 100 | – |
| NS(=O)(=O)OC[C@H]1C[C@@H](Nc2ncncc2C(=O)c2cc(S(=O)(=O)c3cccc(Cl)c3)c(Cl)s2)C[C@@H]1O [I-203, [(1R,2S,4R)-4-{[5-({5-chloro-4-[(3-chlorophenyl)sulfonyl]-2-thienyl}carbonyl)pyrimidin-4-yl]amino}-2-hydroxycyclopentyl]methyl sulfamate] | 58 | 10 to 100 | – |
| NS(=O)(=O)OC[C@H]1C[C@@H](Nc2ncncc2C(=O)c2cc(CN3CC=CCC3)cs2)C[C@@H]1O [I-204, {(1R,2S,4R)-4-[(5-{[4-(3,6-dihydropyridin-1(2H)-ylmethyl)-2-thienyl]carbonyl}pyrimidin-4-yl)amino]-2-hydroxycyclopentyl}methyl sulfamate] | 52 | 10 to 100 | – |
| NS(=O)(=O)OC[C@H]1C[C@@H](Nc2ncncc2C(=O)c2ccc(Cc3cccc(Cl)c3)s2)[C@@H](F)[C@@H]1O [I-205, {(1R,2R,3R,4R)-4-[(5-{[5-(3-Chlorobenzyl)-2-thienyl]carbonyl}pyrimidin-4-yl)amino]-3-fluoro-2-hydroxycyclopentyl}methyl sulfamate] | 51 | 100 to 1000 | – |
| NS(=O)(=O)OC[C@H]1C[C@@H](Nc2ncncc2C(=O)c2ccc(CO)o2)C[C@@H]1O [I-206, [(1R,2S,4R)-2-hydroxy-4-({5-[5-(hydroxymethyl)-2-furoyl]pyrimidin-4-yl}amino)cyclopentyl]methyl sulfamate] | 49 | 100 to 1000 | – |
| NS(=O)(=O)OC[C@H]1C[C@@H](Nc2ncncc2C(=O)c2cc(C(=O)c3cccc(Cl)c3)c(Cl)s2)C[C@@H]1O [I-207, {(1R,2S,4R)-4-[(5-{[5-Chloro-4-(3-chlorobenzoyl)-2-thienyl]carbonyl}pyrimidin-4-yl)amino]-2-hydroxycyclopentyl}methyl sulfamate] | 51 | 100 to 1000 | – |
| NS(=O)(=O)OC[C@H]1C[C@@H](Nc2ncncc2C(=O)c2cc(C(=O)c3ccccc3)co2)C[C@@H]1O [I-208, [(1R,2S,4R)-4-{[5-(4-benzoyl-2-furoyl)pyrimidin-4-yl]amino}-2-hydroxycyclopentyl]methyl sulfamate] | 46 | 100 to 1000 | – |
| NS(=O)(=O)OC[C@H]1C[C@@H](Nc2ncncc2C(=O)c2cc(Cc3cncc(Cl)c3)cs2)C[C@@H]1O [I-210, [(1R,2S,4R)-4-{[5-({4-[(5-chloropyridin-3-yl)methyl]-2-thienyl}carbonyl)pyrimidin-4-yl]amino}-2-hydroxycyclopentyl]methyl sulfamate] | 50 | 100 to 1000 | – |
| NS(=O)(=O)OC[C@H]1C[C@@H](Nc2ncncc2C(=O)c2cc(CO)c(Cl)s2)C[C@@H]1O [I-211, {(1R,2S,4R)-4-[(5-{[5-Chloro-4-(hydroxymethyl)-2-thienyl]carbonyl}pyrimidin-4-yl)amino]-2-hydroxycyclopentyl}methyl sulfamate] | 39 | 100 to 1000 | – |
| COCc1ccc(C(=O)c2cncnc2N[C@@H]2C[C@H](COS(N)(=O)=O)[C@@H](O)C2)o1 [I-212, [(1R,2S,4R)-2-hydroxy-4-({5-[5-(methoxymethyl)-2-furoyl]pyrimidin-4-yl}amino)cyclopentyl]methyl sulfamate] | 43 | 100 to 1000 | – |
| NS(=O)(=O)OC[C@H]1C[C@@H](Nc2ncncc2C(=O)c2cc(C(=O)c3ccccc3)c(Cl)s2)C[C@@H]1O [I-215, [(1R,2S,4R)-4-({5-(4-Benzoyl-5-chlor-2-thienyl)carbonyl]pyrimidin-4-yl}amino)-2-hydroxycyclopentyl]methyl sulfamate] | – | 100 to 1000 | 36 |
| NS(=O)(=O)OC[C@H]1C[C@@H](Nc2ncncc2C(=O)c2cc(CO)co2)C[C@@H]1O [I-216, [(1R,2S,4R)-2-Hydroxy-4-{(5-[4-(hydroxymethyl)-2-furoyl]pyrimidin-4-yl}amino)cyclopentyl]methyl sulfamate] | 36 | 100 to 1000 | – |
| COCc1csc(C(=O)c2cncnc2N[C@@H]2C[C@H](COS(N)(=O)=O)[C@@H](O)C2)c1 [I-217, {(1R,2S,4R)-2-Hydroxy-4-[(5-{[4-(methoxymethyl)-2-thienyl]carbonyl}pyrimidin-4-yl)amino]cyclopentyl}methyl sulfamate] | 36 | 100 to 1000 | – |
| COCc1cc(C(=O)c2cncnc2N[C@@H]2C[C@H](COS(N)(=O)=O)[C@@H](O)C2)sc1Cl [I-218, {(1R,2S,4R)-4-[(5-{[5-Chloro-4-(methoxymethyl)-2-thienyl]carbonyl}pyrimidin-4-yl)amino]-2-hydroxycyclopentyl}methyl sulfamate] | 33 | 100 to 1000 | – |
| NS(=O)(=O)OC[C@H]1C[C@@H](Nc2ncncc2C(=O)c2cc(CN3CC=CC3)cs2)C[C@@H]1O [I-219, {(1R,2S,4R)-4-[(5-{[4-(2,5-dihydro-1H-pyrrol-1-ylmethyl)-2-thienyl]carbonyl}pyrimidin-4-yl)amino]-2-hydroxycyclopentyl}methyl sulfamate] | 32 | 100 to 1000 | – |
| CN(C)Cc1cn(Cc2csc(C(=O)c3cncnc3N[C@@H]3C[C@H](COS(N)(=O)=O)[C@@H](O)C3)c2)c2ccccc12 [I-221, {(1R,2S,4R)-4-[(5-{[4-({3-[(dimethylamino)methyl]-1H-indol-1-yl}methyl)-2-thienyl]carbonyl}pyrimidin-4-yl)amino]-2-hydroxycyclopentyl}methyl sulfamate] | 30 | 100 to 1000 | – |
| NS(=O)(=O)OC[C@H]1C[C@@H](Nc2ncncc2C(=O)c2cc(CNCc3ccccc3)cs2)C[C@@H]1O [I-222, [(1R,2S,4R)-4-{[5-({4-(Benzylamino)methyl]-2-thienyl)carbonyl)pyrimidin-4-yl]amino}-2-hydroxycyclopentyl]methyl sulfamate] | – | 100 to 1000 | 31 |
| COCc1coc(C(=O)c2cncnc2N[C@@H]2C[C@H](COS(N)(=O)=O)[C@@H](O)C2)c1 [I-223, [(1R,2S,4R)-2-Hydroxy-4-({5-[4-(methoxymethyl)-2-furoyl]pyrimidin-4-yl}amino)cyclopentyl]methyl sulfamate] | 28 | 100 to 1000 | – |
| NS(=O)(=O)OC[C@H]1C[C@@H](Nc2ncncc2C(=O)c2cc(CN3CCCC(F)(F)C3)cs2)C[C@@H]1O [I-224, [(1R,2S,4R)-4-{[5-({4-[(3,3-difluoropiperidin-1-yl)methyl]-2-thienyl}carbonyl)pyrimidin-4-yl]amino}-2-hydroxycyclopentyl]methyl sulfamate] | 31 | 100 to 1000 | – |
| NS(=O)(=O)OC[C@H]1C[C@@H](Nc2ncncc2C(=O)c2cc(CN3CCC(F)(F)C3)cs2)C[C@@H]1O [I-228, [(1R,2S,4R)-4-{[5-({4-[(3,3-Difluoropyrrolidin-1-yl)methyl]-2-thienyl}carbonyl)pyrimidin-4-yl]amino}-2-hydroxycyclopentyl]methyl sulfamate] | 29 | 100 to 1000 | – |
| CC(=O)c1csc(C(=O)c2cncnc2N[C@@H]2C[C@H](COS(N)(=O)=O)[C@@H](O)C2)c1 [I-229, [(1R,2S,4R)-4-{(5-[(4-Acetyl-2-thienyl)carbonyl]pyrimidin-4-yl}amino)-2-hydroxycyclopentyl]methyl sulfamate] | 25 | 100 to 1000 | – |
| NS(=O)(=O)OC[C@H]1C[C@@H](Nc2ncncc2C(=O)c2cc(CO)cs2)C[C@@H]1O [I-230, {(1R,2S,4R)-2-hydroxy-4-[(5-{[4-(hydroxymethyl)-2-thienyl]carbonyl}pyrimidin-4-yl)amino]cyclopentyl}methyl sulfamate] | 26 | 100 to 1000 | – |
| NS(=O)(=O)OC[C@H]1C[C@@H](Nc2ncncc2C(=O)c2cc(Cn3ccnc3)cs2)C[C@@H]1O [I-231, {(1R,2S,4R)-2-hydroxy-4-[(5-{[4-(1H-imidazol-1-ylmethyl)-2-thienyl]carbonyl}pyrimidin-4-yl)amino]cyclopentyl}methyl sulfamate] | 28 | 100 to 1000 | – |
| Cc1cc(Cc2cccc(Cl)c2)sc1C(=O)c1cncnc1N[C@@H]1C[C@H](COS(N)(=O)=O)[C@@H](O)C1 [I-233, {(1R,2S,4R)-4-[(5-{[5-(3-Chlorobenzyl)-3-methyl-2-thienyl]carbonyl}pyrimidin-4-yl)amino]-2-hydroxycyclopentyl}methyl sulfamate] | 22 | 100 to 1000 | – |
